The source of these data is US20220389009A1, “SUBSTITUTED 1,6-NAPHTHYRIDINE INHIBITORS OF CDK5” (Goldfinch Bio, Inc., priority 2019, published 2022).

Bounds are passed on as bounds.

In test [1] the target is CDK5/p25 (Homo sapiens, UniProt Q00535). The test can be described thus: CDK5 mobility shift assay (enzymatic activity of CDK5/p25). In kind it is biochemical. Particulars: for IC50: 0.154 nM CDK5/p25, FL peptide 29, 60 min at room temperature, read-out: CDK5 IC50; for CDK5/CDK2 specificity: fold more active against CDK5 than CDK2. Summed up:
(§1)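 Phosphorylation of 1.5 μM fluorescent peptide was read by microfluidic mobility shift and fitted to IC50 (4-parameter), normalized to no-compound and no-enzyme controls. CDK5/p25 ran at 0.154 nM with […] ATP for 60 min, using peptide 29. CDK2/CycA2 ran at 1.25 nM with 37 μM ATP for 120 min, using peptide 18. Both included a 30-min compound preincubation in pH 7.5 buffer.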

Test [2] deals with CDK2/CycA2 (Homo sapiens, UniProt P24941). As to the kind of experiment: CDK2 mobility shift assay (enzymatic activity of CDK2/CycA2). It is filed as biochemical. Conditions: 1.25 nM CDK2/CycA2, 37 μM ATP, FL Peptide 18, 120 min at room temperature; read-out: CDK2 IC50. The gist of the method: as §1

Usually IC50 stands for the midpoint of a concentration-inhibition curve.

CDK5/p25, sequence (Q00535 whole entry): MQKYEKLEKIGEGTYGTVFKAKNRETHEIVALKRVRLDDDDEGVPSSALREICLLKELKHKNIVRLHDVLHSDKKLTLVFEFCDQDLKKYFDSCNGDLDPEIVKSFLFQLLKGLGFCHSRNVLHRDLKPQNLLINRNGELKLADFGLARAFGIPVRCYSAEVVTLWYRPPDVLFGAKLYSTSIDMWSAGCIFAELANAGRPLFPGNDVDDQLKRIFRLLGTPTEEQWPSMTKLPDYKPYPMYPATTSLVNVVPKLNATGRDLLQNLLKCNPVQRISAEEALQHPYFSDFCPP
CDK5/p25, sequence (Q15078 99-307 partner limits assumed): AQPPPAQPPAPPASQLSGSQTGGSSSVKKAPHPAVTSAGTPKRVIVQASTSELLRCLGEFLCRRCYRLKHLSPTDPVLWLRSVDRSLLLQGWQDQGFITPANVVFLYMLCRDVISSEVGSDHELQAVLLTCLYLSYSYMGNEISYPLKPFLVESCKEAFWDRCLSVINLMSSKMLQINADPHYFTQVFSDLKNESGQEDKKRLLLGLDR

Turning to `Fc1cc(-n2cccn2)ccc1Nc1cc2nc(SC3CCNCC3)ccc2cn1` [Compound 107, N-[2-fluoro-4-(pyrazol-1-yl)phenyl]-2-(piperidin-4-ylsulfanyl)-1,6-naphthyridin-7-amine], in test [1], the IC50 is < 10 nM; the CDK5/CDK2 specificity result was “++ (greater than 10-fold and less than or equal to 100-fold more active against CDK5 than CDK2)”. The IC50 in test [2] lay in the range of 10 to 100 nM.

For the compound `O=S(=O)(c1ccc2cnc(Nc3ccc(-n4ccc(CO)n4)cc3F)cc2n1)C1CCN(CC(O)CO)CC1` (stereo not drawn) [Compound 249], the IC50 is < 10 nM in test [1] and 100 to 1000 nM in test [2]. Besides, the CDK5/CDK2 specificity result in test [1] was “++ (greater than 10-fold and less than or equal to 100-fold more active against CDK5 than CDK2)”.

With `OC(c1ccc2cnc(Nc3ccc(-n4cccn4)cc3F)cc2n1)C1CCNCC1` (stereo not drawn) [Compound 149, (7-[[2-fluoro-4-(pyrazol-1-yl)phenyl]amino]-1,6-naphthyridin-2-yl) (piperidin-4-yl)methanol], in test [1], the IC50 fell in the range of 10 to 100 nM; the CDK5/CDK2 specificity result is “++ (greater than 10-fold and less than or equal to 100-fold more active against CDK5 than CDK2)”. Moreover, the IC50 in test [2] was > 1000 nM.

With `CC(C)N1CCC(S(=O)(=O)c2ccc3cnc(Nc4ccc(-n5cccn5)cc4F)cc3n2)CC1` [Compound 380], in test [1], the IC50 fell in the range of 10 to 100 nM; the CDK5/CDK2 specificity entry was “++ (greater than 10-fold and less than or equal to 100-fold more active against CDK5 than CDK2)”. In addition, the IC50 in test [2] was in the range of 100 to 1000 nM.

Turning to `CN1CCC(S(=O)(=O)c2ccc3cnc(Nc4ccc(C(C)(C)C)cc4)cc3n2)CC1` [Compound 295], in test [1], the IC50 is < 10 nM; the CDK5/CDK2 specificity entry is “++ (greater than 10-fold and less than or equal to 100-fold more active against CDK5 than CDK2)”. The IC50 in test [2] was in the range of 10 to 100 nM.

With `N#Cc1cccc(-c2ccc(Nc3cc4nc(C(O)C5CCN(CCO)CC5)ccc4cn3)c(F)c2)c1` (single isomer, unassigned) [Compound 251, 3′-fluoro-4′-[(2-[hydroxy[1-(2-hydroxyethyl)piperidin-4-yl]methyl]-1,6-naphthyridin-7-yl)amino]-[1,1′-biphenyl]-3-carbonitrile], the figures for the IC50 in test [1] and in test [2] were 10 to 100 nM and > 1000 nM, respectively. Further, the CDK5/CDK2 specificity entry in test [1] was “++ (greater than 10-fold and less than or equal to 100-fold more active against CDK5 than CDK2)”.

For `CN1CCC(C(C)(O)c2ccc3cnc(Nc4ccc(-c5ccc(C#N)cn5)cc4F)cc3n2)CC1` (stereo not drawn) [Compound 356], the results for the IC50 in test [1] and in test [2] were < 10 nM and 10 to 100 nM, respectively. The CDK5/CDK2 specificity result in test [1] is “++ (greater than 10-fold and less than or equal to 100-fold more active against CDK5 than CDK2)”.

Turning to `NC(c1ccc2cnc(Nc3ccc(-n4cccn4)cc3F)cc2n1)C1CCNCC1` (stereo not drawn) [Compound 165, 2-[amino(piperidin-4-yl)methyl]-N-[2-fluoro-4-(pyrazol-1-yl)phenyl]-1,6-naphthyridin-7-amine], the IC50 in test [1] was in the range of 10 to 100 nM; in test [2], 100 to 1000 nM. In addition, the CDK5/CDK2 specificity result in test [1] was “++ (greater than 10-fold and less than or equal to 100-fold more active against CDK5 than CDK2)”.

Take `CCc1ccc(F)c(Nc2cc3nc(S(=O)(=O)C4CCN(C)CC4)ccc3cn2)c1` [Compound 379]: in test [1], the IC50 is < 10 nM and the CDK5/CDK2 specificity entry was “+++ (greater than 100-fold more active against CDK5 than CDK2)”. The IC50 in test [2] lay in the range of 100 to 1000 nM.

In the case of `CN1CCC(C(C)(O)c2ccc3cnc(Nc4ccc(-c5ccc(=O)[nH]c5)cc4F)cc3n2)CC1` (stereo not drawn) [Compound 383], in test [1], the IC50 was < 10 nM; the CDK5/CDK2 specificity entry is “++ (greater than 10-fold and less than or equal to 100-fold more active against CDK5 than CDK2)”. Further, in test [2], the half-maximal inhibitory concentration (IC50) was in the range of 10 to 100 nM.
